Converted amounts (≈) assume the structure as drawn.
Assays:
Artemia salina = test: Toxicity against Artemia salina; format: organism-based; details: in vivo
Gambusia affinis = test: Toxicity against Gambusia affinis; format: organism-based; details: in vivo
Bacillus subtilis = test: Antibacterial activity against Bacillus subtilis DSM 347; format: functional
Micrococcus luteus = test: Antibacterial activity against Micrococcus luteus DSM 348; format: functional

C[C@H]1CC=C2[C@H](CCCC2(C)C)[C@@]1(C)CCC1=CC[C@H](C2=CC(=O)O[C@H]2O)OC1 [CACOSPONGIONOLIDE F]
LC50 (Artemia salina): 0.17 ppm | LC50 (Gambusia affinis): 0.7 ppm | MIC (Bacillus subtilis): 0.78 µg/mL (≈ 1.95 µM) | MIC (Micrococcus luteus): 0.78 µg/mL (≈ 1.95 µM)

— ChEMBL document CHEMBL1144114, “A new cacospongionolide derivative from the sponge Fasciospongia cavernosa” (J Nat Prod, 1999)
